Among the test systems are SK-MEL-28 melanoma; IGROV1 ovarian; RXF 393 renal; 786-0 renal; OVCAR-8 ovarian; UO-31 renal; K-562 leukemia; LOX IMVI melanoma; NCI/ADR-RES ovarian; U251 CNS.
What all share (experiment): growth of human tumour cells (NCI), 48 h

“And” between values parts separate entries of the source, which are not always exact repeats. Equal entries are not always repeated.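 Five compound concentrations were applied to cells in 96-well plates for 48 hours; endpoints were derived by simple linear interpolation of the resulting dose-response curve. The concentration for 50% growth inhibition is given as GI50. TGI: concentration producing complete growth inhibition.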

Regarding `C[n+]1c(-c2ccc(/C=C/C=N\NC(=O)c3ccc(C(=O)N/N=C\C=C\c4ccc(-c5cn6ccccc6[n+]5C)cc4)cc3)cc2)cn2ccccc21`, the TGI in the assay on SK-MEL-28 melanoma is above 100 µM; with IGROV1 ovarian, above 100 µM; in the assay on RXF 393 renal, above 100 µM; in the assay with 786-0 renal, above 56.2 µM; with OVCAR-8 ovarian, above 100 µM; with UO-31 renal it was above 100 µM. For the same compound, the TGI was above 51.2 µM in the assay on K-562 leukemia, above 100 µM in the assay with LOX IMVI melanoma, above 100 µM in the assay with NCI/ADR-RES ovarian and above 100 µM in the assay on U251 CNS.
Take `Cc1ccc(/C=C2\Cc3c(C)cc(C)cc3C2=O)c(C(=O)O)c1`: the TGI in the assay with SK-MEL-28 melanoma was above 100 µM; in the assay on IGROV1 ovarian, above 100 µM; in the assay on RXF 393 renal, 88.6 µM; with 786-0 renal, above 100 µM; in the assay with OVCAR-8 ovarian, above 100 µM; in the assay on UO-31 renal it was above 100 µM. The TGI was above 100 µM in the assay with K-562 leukemia, 48.9 µM in the assay on LOX IMVI melanoma, above 100 µM in the assay on NCI/ADR-RES ovarian and above 100 µM in the assay on U251 CNS.
With `CC(=O)OC(Cn1cncn1)(Cn1cncn1)c1ccc(Cl)cc1Cl`, the TGI with SK-MEL-28 melanoma, in the assay with IGROV1 ovarian, in the assay on RXF 393 renal, in the assay with 786-0 renal, in the assay with OVCAR-8 ovarian and in the assay with UO-31 renal was above 100 µM throughout. For the same compound, the TGI with K-562 leukemia, in the assay on LOX IMVI melanoma, with NCI/ADR-RES ovarian and in the assay with U251 CNS was above 100 µM each time.
On to `C#CCN(Cc1ccc2nc(OC)c(OC)nc2c1)c1cc(OC)c(OC)c(OC)c1`, for which the TGI with SK-MEL-28 melanoma was above 100 µM; in the assay with IGROV1 ovarian it was above 69.6 µM; in the assay with RXF 393 renal it was above 75.1 µM; in the assay with 786-0 renal it was 78.7 µM; with OVCAR-8 ovarian, 64.3 µM; with UO-31 renal, above 89.1 µM. The TGI with K-562 leukemia was above 100 µM; in the assay with LOX IMVI melanoma it was above 48.9 µM; with NCI/ADR-RES ovarian it was 53.7 µM; in the assay on U251 CNS, above 80.2 µM.
As for `CC(C)(C)c1cc(C(=O)/C=C/c2ccc3c(c2)OCO3)cc(C(C)(C)C)c1O`, the TGI is above 100 µM in the assay with SK-MEL-28 melanoma; above 100 µM in the assay with IGROV1 ovarian; 7.58 µM with RXF 393 renal; 21 µM in the assay on 786-0 renal; above 100 µM in the assay on OVCAR-8 ovarian; above 81 µM with UO-31 renal. Moreover, the TGI is above 39.1 µM in the assay on K-562 leukemia, above 55.8 µM in the assay with LOX IMVI melanoma, 16.8 µM in the assay on NCI/ADR-RES ovarian and 19.3 µM in the assay with U251 CNS.
In the case of `CC(=O)c1ccc2c(c1)CC1(C2)Cc2ccccc2C1=O` (configuration not stated), the TGI with SK-MEL-28 melanoma, in the assay on IGROV1 ovarian, in the assay with RXF 393 renal, in the assay on 786-0 renal, in the assay with OVCAR-8 ovarian and with UO-31 renal was above 100 µM each time. Also, the TGI in the assay with K-562 leukemia is above 100 µM; with LOX IMVI melanoma it was above 100 µM; in the assay with NCI/ADR-RES ovarian, 75.6 µM; in the assay on U251 CNS, above 100 µM.
`O=C1c2ccccc2NC(=S)[C@@H]2CCCN12`: the TGI in the assay on SK-MEL-28 melanoma, in the assay with IGROV1 ovarian, with RXF 393 renal, in the assay with 786-0 renal, with OVCAR-8 ovarian and in the assay on UO-31 renal was above 100 µM each time. Further, the TGI in the assay on K-562 leukemia, with LOX IMVI melanoma, in the assay on NCI/ADR-RES ovarian and with U251 CNS was above 100 µM in each case.
Consider `Cc1ccc(C2=CC(=O)/C(=C\C(=O)c3ccc(Cl)cc3)O2)cc1`, for which the TGI in the assay with SK-MEL-28 melanoma worked out at 33.1 µM; with IGROV1 ovarian it was 34.2 µM; in the assay on RXF 393 renal it was 18.6 µM; with 786-0 renal, 21.6 µM; with OVCAR-8 ovarian, 14.6 µM; with UO-31 renal it was 21.4 µM. Moreover, the TGI in the assay on K-562 leukemia was 41.7 µM; in the assay with LOX IMVI melanoma, 3.31 µM; in the assay on NCI/ADR-RES ovarian, 49.6 µM; in the assay with U251 CNS it was 32 µM.
`O=c1cc(-c2ccccc2)oc2c(-c3cc(Cl)cc4c(=O)cc(-c5ccccc5)oc34)cc(Cl)cc12`: the TGI in the assay with SK-MEL-28 melanoma was above 100 µM; with IGROV1 ovarian, above 100 µM; in the assay on RXF 393 renal, above 100 µM; in the assay on 786-0 renal, above 100 µM; in the assay on OVCAR-8 ovarian, above 100 µM; with UO-31 renal it was 60.4 µM. Moreover, the TGI with K-562 leukemia, in the assay with LOX IMVI melanoma, in the assay on NCI/ADR-RES ovarian and in the assay on U251 CNS was above 100 µM each time.
As for `CC(C(=O)O)C(C)(O)C(=O)O` (configuration not stated), the TGI with SK-MEL-28 melanoma, with IGROV1 ovarian, with RXF 393 renal, in the assay with 786-0 renal, in the assay on OVCAR-8 ovarian and in the assay with UO-31 renal was above 100 µM in each case. Moreover, the TGI in the assay with K-562 leukemia, in the assay on LOX IMVI melanoma, with NCI/ADR-RES ovarian and in the assay on U251 CNS was above 100 µM in each case.
For `O=C(Nc1noc(-c2ccccc2)n1)c1ccccc1CNc1noc(-c2ccccc2)n1`, the TGI with SK-MEL-28 melanoma, with IGROV1 ovarian, in the assay with RXF 393 renal, in the assay with 786-0 renal, with OVCAR-8 ovarian and with UO-31 renal was above 100 µM each time. Also, the TGI with K-562 leukemia, in the assay on LOX IMVI melanoma, with NCI/ADR-RES ovarian and in the assay with U251 CNS was above 100 µM throughout.
In the case of `O=c1[nH]c(=O)n(C2CC(O)C(CO)O2)cc1OCc1ccccc1` (configuration not stated), the TGI in the assay on SK-MEL-28 melanoma, in the assay with IGROV1 ovarian, in the assay with RXF 393 renal, in the assay with 786-0 renal, in the assay on OVCAR-8 ovarian and with UO-31 renal was above 100 µM throughout. Besides, the TGI in the assay with K-562 leukemia, with LOX IMVI melanoma, with NCI/ADR-RES ovarian and with U251 CNS was above 100 µM in each case.
Consider `O=[N+]([O-])c1ccc2c(c1)C1=NN(c3ccccc3)C(c3ccccc3Br)C1CCC2` (configuration not stated), for which the TGI in the assay with SK-MEL-28 melanoma is above 50 µM; in the assay on IGROV1 ovarian, above 50 µM; with RXF 393 renal, 43 µM; in the assay on 786-0 renal, above 50 µM; in the assay on OVCAR-8 ovarian it was above 50 µM; in the assay with UO-31 renal it was above 50 µM. For the same compound, the TGI in the assay on K-562 leukemia is above 50 µM; with LOX IMVI melanoma, above 50 µM; in the assay on NCI/ADR-RES ovarian, 45.6 µM; with U251 CNS it was above 50 µM.
As for `CCOC(=O)c1cn2c(n1)sc1cc(Cl)cc(Cl)c12`, the TGI with SK-MEL-28 melanoma, in the assay with IGROV1 ovarian, in the assay with RXF 393 renal, with 786-0 renal, with OVCAR-8 ovarian and in the assay with UO-31 renal was above 100 µM throughout. The TGI in the assay with K-562 leukemia, with LOX IMVI melanoma, in the assay on NCI/ADR-RES ovarian and in the assay on U251 CNS was above 100 µM each time.
Consider `C=C1c2nc3ccccc3n2C=C(c2ccc(Cl)cc2)N1c1ccc(OC)cc1`, for which the TGI was 22.2 µM in the assay with SK-MEL-28 melanoma; 26.1 µM in the assay on IGROV1 ovarian; 21.6 µM with RXF 393 renal; 20.7 µM in the assay on 786-0 renal; 15.8 µM with OVCAR-8 ovarian; 19.4 µM with UO-31 renal. Moreover, the TGI with K-562 leukemia is above 100 µM; in the assay on LOX IMVI melanoma, above 100 µM; with NCI/ADR-RES ovarian it was 14 µM; in the assay with U251 CNS it was 25.4 µM.
Regarding `C=C(CN(C)C)C(=O)c1ccccc1[N+](=O)[O-]`, the GI50 was 18.8 µM in the assay on SK-MEL-28 melanoma; 1.99 µM with RXF 393 renal; 6.55 µM in the assay on OVCAR-8 ovarian; 3.38 µM in the assay on K-562 leukemia; 3.98 µM in the assay on LOX IMVI melanoma; 5.61 µM with NCI/ADR-RES ovarian. Further, the GI50 with U251 CNS was 17.8 µM. Also, the TGI was 34.1 µM and 51.6 µM in the assay on SK-MEL-28 melanoma; 52.7 µM in the assay with IGROV1 ovarian; 30.2 µM and 4.32 µM with RXF 393 renal; 27 µM with 786-0 renal; 40.9 µM and 32 µM in the assay with OVCAR-8 ovarian; 32.2 µM with UO-31 renal. In addition, the TGI is 27.7 µM and 12.9 µM in the assay with K-562 leukemia; 15 µM and 15.5 µM with LOX IMVI melanoma; 48.9 µM in the assay with NCI/ADR-RES ovarian; 54.5 µM and 31.8 µM with U251 CNS.
For the compound `COC(=O)[C@H](Cc1ccccc1)NC(=O)CCCCCCC(=O)NO`, the TGI was above 100 µM with SK-MEL-28 melanoma; 57.5 µM with IGROV1 ovarian; 32.3 µM in the assay with RXF 393 renal; above 100 µM in the assay on 786-0 renal; above 100 µM in the assay with OVCAR-8 ovarian; above 100 µM in the assay with UO-31 renal. In addition, the TGI in the assay with K-562 leukemia was above 100 µM; with LOX IMVI melanoma it was 32.4 µM; with NCI/ADR-RES ovarian it was above 100 µM; with U251 CNS it was 87.5 µM.

The record behind these values is PubChem BioAssay (NCI).
